Data reported in patent EP0454459A2, “Sulfonylalkanoic acid amide derivatives” (TAISHO PHARMACEUTICAL CO. LTD, priority 1990, dated 1991).

How the values were obtained:
male Wistar rats [1] = assay: Inhibition test of the radiofrequency decerebrate rigidity; type: in vivo; conditions: inhibition time of hindlimb rigidity, intravenously, 5 mg/kg, dissolved in propylene glycol
Protocol: The rigidity animals were prepared according to the method of Ono et al. [Gen. Pharm., vol. 18, pages 57 - 59 (1987)].
Four male Wistar rats weighing 250 to 350 g were used for each group. The animals were anesthetized with ethyl ether and fixed on a brain stereotaxic apparatus to break the midbrain bilaterally (APO, V-3, L±1.5). Rigidity occurred gradually in the hindlimbs after discontinuation of ethyl ether anesthesia. The test drugs dissolved in propylene glycol were administered intravenously in a dose of 5 mg/kg (0.1 ml per 100 g of rat) to determine the inhibition time of the rigidity.

male Wistar rats [2] = assay: Inhibition test of anemic decerebrate rigidity; type: in vivo; conditions: inhibition time of forelimb rigidity, intravenously, 5 mg/kg, dissolved in polyethlene glycol 400
Protocol: The rigidity animals were prepared according to the method of Fukuda et al. [Japanese J. Pharmacol., vol. 24, pages 810 - 813 (1974)].
Four male Wistar rats weighing 250 to 350 g were used for each group.
The animal was incised on the cervical region under the ethyl ether anesthesia, and the common carotid arteries were ligated bilaterally. A trephined opening was made in the occipital bone and the basilar artery was coagulated using a bipolar electro-coagulator. Marked rigidity occurred on the forelimbs after discontinuation of the ethyl ether anesthesia. The test drugs dissolved in polyethlene glycol 400 were each administered intravenously in a dose of 5 mg/kg (0.1 ml per 100 g of rat) to determine the inhibition time of the rigidity.

male ICR mice [3] = assay: Straub tail test (morphine-induced tail elevation); type: in vivo; conditions: orally 100 mg/kg, 15 mg/kg morphine hydrochloride s.c. after 15 minutes, tail elevation determined after 30 minutes, positive when angle less than 45°
Protocol: The test was carried out according to the method of Ellis et al. [Neuropharmacology, vol. 13, pages 211 - 214 (1974)]. Five male ICR mice weighing 20 to 30 g were used for each group. The test drugs suspended in 0.4% aqueous carboxymethylcellulose solution were administered orally in a dose of 100 mg/kg (0.1 ml per 10 g of mouse). After 15 minutes, 15 mg/kg of morphine hydrochloride was administered subcutaneously, and after 30 minutes, the tail elevation was determined. The muscle relaxation activity was defined as positive when the angle of tail elevation from the horizontal was less than 45°. As a result, the inhibition ratio of Compounds 2, 4 and 8 were each 100%.

Acute toxicity test = type: in vivo, ICR mice; conditions: mouse, in vivo, po; mice; p.o.; survivals observed 7 days after administration; read-out: LD₅₀ value
Protocol: (§1) Ten male ICR mice weighing 25 to 34 g were used. Compound 4 suspended in 0.4 aqueous carboxymethylcellulose solution was each administered orally to mice in a volume of 0.1 ml per 10 g of mice. The survivals were observed 7 days after administration.

male ICR mice [4] = assay: Acute toxicity test; type: in vivo; conditions: orally, dose of 1 g/kg, observed 7 days after administration
Protocol: as §1

SMILES	Inhibition Time (male Wistar rats [1]) [min]	Inhibition Time (male Wistar rats [2]) [min]	inhibition ratio (male ICR mice [3]) [%]	LD50 at 168 h (Acute toxicity test) [mg/kg]	death (male ICR mice [4])
CC(C(=O)NC1CC1)S(=O)(=O)c1ccccc1Cl (centres unmarked) [Compound 2, N-cyclopropyl-2-(2-chlorophenylsulfonyl)propionamide]	11.7	5.0	100	–	–
CC(C(=O)NC1CC1)S(=O)(=O)c1ccccc1Br (centres unmarked) [Compound 4, N-cyclopropyl-2-(2-bromophenylsulfonyl)propionamide]	37.0	–	100	> 1000	No death occurred
CC(C(=O)NC1CC1)S(=O)(=O)c1ccc(Cl)cc1Cl (centres unmarked) [Compound 8, N-cyclopropyl-2-(2,4-dichlorophenylsulfonyl)propionamide]	78.0	17.7	100	–	–
CC(C(=O)NC1CC1)S(=O)(=O)c1ccc(F)cc1Cl (centres unmarked) [Compound 11]	24.0	–	–	–	–
